In this experiment the target is T1, OX1 (Homo sapiens, UniProt O43613).
T1 construct: expressed in transfected cells; host or cells: CHO (CHO-OX1, kept under selection antibiotic)
T1 sequence (O43613 1-425): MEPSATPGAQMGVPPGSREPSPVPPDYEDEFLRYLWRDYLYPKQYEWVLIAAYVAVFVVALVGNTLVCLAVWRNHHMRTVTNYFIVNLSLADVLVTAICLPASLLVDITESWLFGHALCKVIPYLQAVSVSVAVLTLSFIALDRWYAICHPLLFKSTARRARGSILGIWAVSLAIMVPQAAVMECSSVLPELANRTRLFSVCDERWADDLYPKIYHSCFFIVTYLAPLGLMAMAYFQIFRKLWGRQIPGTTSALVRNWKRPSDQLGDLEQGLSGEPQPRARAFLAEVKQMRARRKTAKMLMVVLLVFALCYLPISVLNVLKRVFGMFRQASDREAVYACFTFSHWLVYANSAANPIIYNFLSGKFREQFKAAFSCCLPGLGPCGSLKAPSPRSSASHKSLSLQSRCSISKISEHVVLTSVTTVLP
Description: Orexin receptor cell-based functional assay, [Ca2+]i by FLIPR, CHO-OX1 cells. Conditions: Table 2; CHO-OX1 cells, EC90 of OXA; read-out: IC50 Bioactivity OX1. The protocol: Measurement of [Ca^2+]i using a FLIPR: CHO—OX1 or CHO—OX2 cells are seeded into black-walled clear-base 384-well plates (Costar) at a density of 20,000 cells per well in F12-K medium supplemented with 10% FBS and selection antibiotic (500 ug/ml G418 or 15 ug/ml Blasticidin) and cultured overnight. The cells are incubated with equal volume of calcium4 loading buffer (Molecular Devices, Inc.) containing 2.5 mM probenecid at 37° C. for 30 min, followed by putative OX1 or OX2 receptor antagonists (dose-range 0.1 nM-10 μM) for another 30 min.
The cells are incubated with equal volume of calcium6 loading buffer (Molecular Devices, Inc.) containing 2.5 mM probenecid at 37° C. for 2 h, followed by test compounds (dose-range 0.1 nM-10 μM) for another 30 min.

pIC50: −log10 of the molar value.

Turning to `Cc1nc(C(=O)N2CC(F)(F)CCC2CNC(=O)c2cccc3cccnc23)c(-c2ccccc2)s1` (racemic) [Example 56, rac-N-((5,5-Difluoro-1-(2-methyl-5-phenylthiazole-4-carbonyl)piperidin-2-yl)methyl)quinoline-8-carboxamide], the pIC50 was above 7.00.
Under `Cc1cc2c(C(=O)NCC3CCC(F)(F)CN3C(=O)c3nc(C)sc3-c3ccc(F)cc3)cccc2o1` (racemic) [Example 57, rac-N-((5,5-Difluoro-1-(5-(4-fluorophenyl)-2-methylthiazole-4-carbonyl)piperidin-2-yl)methyl)-2-methylbenzofuran-4-carboxamide] stands above 7.00.
As for `COc1c(F)cccc1C(=O)NCC1CCCC(C)N1C(=O)c1nc(C)sc1-c1ccc(F)cc1` (racemic) [Example 60, rac-3-Fluoro-N-((1-(5-(4-fluorophenyl)-2-methylthiazole-4-carbonyl)-6-methylpiperidin-2-yl)methyl)-2-methoxybenzamide], the figure is 9.00.
Under `Cc1cc2c(C(=O)NCC3CCCC(C)N3C(=O)c3nc(C)sc3-c3ccc(F)cc3)cccc2o1` (racemic) [Example 61, rac-N-((1-(5-(4-Fluorophenyl)-2-methylthiazole-4-carbonyl)-6-methylpiperidin-2-yl)methyl)-2-methylbenzofuran-4-carboxamide] stands 8.15; under `Cc1nc(C(=O)N2CCC[C@@H](C)[C@H]2CNC(=O)c2cccc3occc23)c(-c2ccc(F)cc2)s1` (racemic) [Example 63, rac-cis-N-((1-(5-(4-Fluorophenyl)-2-methylthiazole-4-carbonyl)-3-methylpiperidin-2-yl)methyl)benzofuran-4-carboxamide], 8.70.
As for `Cc1nc(-c2ccccc2)c(C(=O)N2C[C@@H]3CCCC[C@@H]3[C@H]2CNC(=O)c2cccc3cccnc23)s1` (racemic) [Example 64, N-(((1S,3aR,7aS)-2-(2-Methyl-4-phenylthiazole-5-carbonyl)octahydro-1H-isoindol-1-yl)methyl)quinoline-8-carboxamide], the pIC50 is 5.52.
As for `O=C(NC[C@@H]1[C@H]2CCCC[C@H]2CN1C(=O)c1ccccc1-c1ccccc1)c1cccc2cccnc12` (racemic) [Example 66, N-(((1S,3aR,7aS)-2-(Biphenylcarbonyl)octahydro-1H-isoindol-1-yl)methyl)quinoline-8-carboxamide], the figure is 6.46.
As for `Cc1nc(C(=O)N2CCC[C@@H](C)[C@H]2CNc2nc3ccccc3s2)c(-c2ccc(F)cc2)s1` (racemic) [Example 72, rac-cis-(2-((Benzo[d]thiazol-2-ylamino)methyl)-3-methylpiperidin-1-yl)(5-(4-fluorophenyl)-2-methylthiazol-4-yl)methanone], the figure is 8.22; as for `Cc1nc(C(=O)N2CCC[C@@H](C)[C@H]2CNc2ccc(C(F)(F)F)cn2)c(-c2ccccc2)s1` (racemic) [Example 73, rac-cis-(3-Methyl-2-(((5-(trifluoromethyl)pyridin-2-yl)amino)methyl)piperidin-1-yl)(2-methyl-5-phenylthiazol-4-yl)methanone], above 8.00; as for `Cc1nc(C(=O)N2CCC[C@@H](C)[C@H]2CNc2cccc3cccnc23)c(-c2ccc(F)cc2)s1` (racemic) [Example 74, rac-cis-(3-Methyl-2-((quinolin-8-ylamino)methyl)piperidin-1-yl)(5-(4-fluorophenyl)-2-methylthiazol-4-yl)methanone], 7.24.
As for `CC[C@@H]1CCCN(C(=O)c2nc(C)sc2-c2ccc(F)cc2)[C@@H]1CNc1ccc(C(F)(F)F)cn1` (racemic) [Example 76, rac-cis-(3-Ethyl-2-(((5-(trifluoromethyl)pyridin-2-yl)amino)methyl)piperidin-1-yl)(5-(4-fluorophenyl)-2-methylthiazol-4-yl)methanone], the figure is 6.52.
As for `CCc1cnc(NC[C@@H]2[C@H](CC)CCCN2C(=O)c2nc(C)sc2-c2ccc(F)cc2)nc1` (racemic) [Example 78, rac-cis-(3-Ethyl-2-(((5-ethylpyrimidin-2-yl)amino)methyl)piperidin-1-yl)(5-(4-fluorophenyl)-2-methylthiazol-4-yl)methanone], the negative logarithm of the IC50 (pIC50) is 8.70.
Under `Cc1nc(C(=O)N2CCC[C@@H](C)[C@H]2COc2nc3ccccc3o2)c(-c2ccc(F)cc2)s1` (racemic) [Example 80, rac-cis-(2-((Benzo[d]oxazol-2-yloxy)methyl)-3-methylpiperidin-1-yl)(5-(4-fluorophenyl)-2-methylthiazol-4-yl)methanone] stands 6.85; under `Cc1nc(C(=O)N2CCC[C@@H](C)[C@H]2CNc2ncc(Cl)cn2)c(-c2ccc(F)cc2)s1` (racemic) [Example 82, rac-cis-(2-(((5-Chloropyrimidin-2-yl)amino)methyl)-3-methylpiperidin-1-yl)(5-(4-fluorophenyl)-2-methylthiazol-4-yl)methanone], 8.40.
As for `Cc1cnc(NC[C@@H]2[C@H](C)CCCN2C(=O)c2nc(C)sc2-c2ccc(F)cc2)nc1` (racemic) [Example 83, rac-cis-(3-Methyl-2-(((5-methylpyrimidin-2-yl)amino)methyl)piperidin-1-yl)(5-(4-fluorophenyl)-2-methylthiazol-4-yl)methanone], the figure is 7.52; as for `Cc1nc(C(=O)N2CCC[C@@H](C(C)C)[C@H]2CNc2nc3ccccc3o2)c(-c2ccc(F)cc2)s1` (racemic) [Example 84, rac-cis-((2S,3S)-2-((Benzo[d]oxazol-2-ylamino)methyl)-3-isopropylpiperidin-1-yl)(5-(4-fluorophenyl)-2-methylthiazol-4-yl)methanone], 7.46.
As for `Cc1ccc(NC[C@@H]2[C@H](C)CCCN2C(=O)c2nc(C)sc2-c2ccc(F)cc2)nc1` (racemic) [Example 86, rac-cis-(3-Methyl-2-(((5-methylpyridin-2-yl)amino)methyl)piperidin-1-yl)(5-(4-fluorophenyl)-2-methylthiazol-4-yl)methanone], the figure is 7.66; as for `Cc1nc(C(=O)N2CCC[C@@H](C)[C@H]2CNc2cccc(C(F)(F)F)n2)c(-c2ccc(F)cc2)s1` (racemic) [Example 87, rac-cis-(3-Methyl-2-(((6-(trifluoromethyl)pyridin-2-yl)amino)methyl)piperidin-1-yl) (5-(4-fluorophenyl)-2-methylthiazol-4-yl)methanone], 6.66.
Consider `COc1cnc(NC[C@@H]2[C@H](C)CCCN2C(=O)c2nc(C)sc2-c2ccc(F)cc2)nc1` (racemic) [Example 88, rac-cis-(2-(((5-Methoxypyrimidin-2-yl)amino)methyl)-3-methylpiperidin-1-yl) (5-(4-fluorophenyl)-2-methylthiazol-4-yl)methanone], for which the negative logarithm of the IC50 (pIC50) was 7.38.
Under `Cc1nc(C(=O)N2CCC[C@@H](C)[C@H]2CNc2ccc(C#N)cn2)c(-c2ccc(F)cc2)s1` (racemic) [Example 91, rac-cis-6-(((1-(5-(4-Fluorophenyl)-2-methylthiazole-4-carbonyl)-3-methylpiperidin-2-yl)methyl)amino)nicotinonitrile] stands 6.85; under `CO[C@@H]1CCCN(C(=O)c2nc(C)sc2-c2ccc(F)cc2)[C@@H]1CNc1ccc(C(F)(F)F)cn1` (racemic) [Example 92, rac-cis-(3-Methoxy-2-(((5-(trifluoromethyl)pyridin-2-yl)amino)methyl)piperidin-1-yl) (5-(4-fluorophenyl)-2-methylthiazol-4-yl)methanone], 6.25.
With `CO[C@@H]1CCCN(C(=O)c2nc(C)sc2-c2ccc(F)cc2)[C@@H]1CNc1ncc(Cl)cn1` (racemic) [Example 93, rac-cis-(2-(((5-Chloropyrimidin-2-yl)amino)methyl)-3-methoxypiperidin-1-yl)(5-(4-fluorophenyl)-2-methylthiazol-4-yl)methanone], the pIC50 was 7.00.
Under `CO[C@@H]1CCCN(C(=O)c2nc(C)sc2-c2ccc(F)cc2)[C@@H]1CNc1nc2ccccc2s1` (racemic) [Example 94, rac-cis-(2-((Benzo[d]thiazol-2-ylamino)methyl)-3-methoxypiperidin-1-yl)(5-(4-fluorophenyl)-2-methylthiazol-4-yl)methanone] stands 7.12; under `Cc1nc(C(=O)N2CCC[C@H](C)[C@H]2CNc2ncc(Cl)cn2)c(-c2ccc(F)cc2)s1` (racemic) [Example 96, rac-trans-(2-(((5-Chloropyrimidin-2-yl)amino)methyl)-3-methylpiperidin-1-yl)(5-(4-fluorophenyl)-2-methylthiazol-4-yl)methanone], 7.74; under `Cc1ccc(-n2nccn2)c(C(=O)N2CCC[C@@H](C)[C@H]2CNc2ncc(C(F)(F)F)cn2)c1` (racemic) [Example 97, rac-cis-(3-Methyl-2-(((5-(trifluoromethyl)pyrimidin-2-yl)amino)methyl)piperidin-1-yl)(5-methyl-2-(2H-1,2,3-triazol-2-yl)phenyl)methanone], 8.05.

Broadly, the pIC50 is the IC50 on a negative log10 scale, so that one unit is a factor of ten.

The record behind these values is US9440982B2 (Eolas Therapeutics, Inc., priority 2012, dated 2016).
